Laboratory results: US10913727B2, “Modulators of the integrated stress pathway” (Calico Life Sciences LLC, priority 2016, dated 2021)

System: HEK293T cells carrying the ATF4 luciferase reporter
Experiment: ATF4-Luc assay, in vitro model of Vanishing Cell White Matter Disease (VWMD)
Format: cell-based
Conditions: Homo sapiens, HEK-293T, 1 μg/mL tunicamycin, 7 hours, One Glo luminescence
Outline: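 Reporter cells were stably generated by retroviral transduction and puromycin selection, then seeded at 30,000 cells/well. Next day, cells received 1 μg/mL tunicamycin with 200 nM test compound for 7 h, and luciferase luminescence was read with a one-step reagent. Values reported as EC50.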

Q: With `Cc1ccc(C(=O)NC23CCC(NC(=O)COc4ccc(Cl)c(F)c4)(CC2)C(O)C3)s1` (stereo not shown) [Compound 621, N-{4-[2-(4-chloro-3-fluorophenoxy)acetamido]-3-hydroxybicyclo[2.2.2]octan-1-yl}-5-methylthiophene-2-carboxamide] as the molecule, how does the EC50 read?
A: 50 to 250 nM

Q: For `O=C(COc1ccc(Cl)c(F)c1)NC12CCC(NC(=O)c3cccc[n+]3[O-])(CC1)CC2O` (stereo not shown) [Compound 944, N-{4-[2-(4-chloro-3-fluorophenoxy)acetamido]-3-hydroxybicyclo[2.2.2]octan-1-yl}-1-oxo-1λ^5-pyridine-2-carboxamide], which EC50 is on record?
A: > 2000 nM

Q: With `O=C(COc1ccc(Cl)c(F)c1)NC12CCC(NC(=O)c3ccc(F)cc3)(CC1)CC2O` (stereo not shown) [Compound 231, N-{4-[2-(4-chloro-3-fluorophenoxy)acetamido]-3-hydroxybicyclo[2.2.2]octan-1-yl}-4-fluorobenzamide] as the molecule, how does the EC50 read?
A: 50 to 250 nM

Q: With `CCc1cc(C(=O)NC23CC(NC(=O)COc4ccc(Cl)c(F)c4)(C2)C3)no1` [Compound 247, N-{3-[2-(4-chloro-3-fluorophenoxy)acetamido]bicyclo[1.1.1]pentan-1-yl}-5-ethyl-1,2-oxazole-3-carboxamide] as the molecule, how does the EC50 read?
A: 250 to 1000 nM

Q: Which EC50 does the source give for `Cn1nc(-c2ccccc2)cc1C(=O)NC12CC(NC(=O)COc3ccc(Cl)c(F)c3)(C1)C2` [Compound 340, N-{3-[2-(4-chloro-3-fluorophenoxy)acetamido]bicyclo[1.1.1]pentan-1-yl}-1-methyl-3-phenyl-1H-pyrazole-5-carboxamide] here?
A: < 50 nM

Q: `O=C(COc1ccc(Cl)c(F)c1)NC12CCC(NC(=O)c3ccc(C(F)(F)F)o3)(CC1)CC2O` (stereo not shown) [Compound 625, N-{4-[2-(4-chloro-3-fluorophenoxy)acetamido]-3-hydroxybicyclo[2.2.2]octan-1-yl}-5-(trifluoromethyl)furan-2-carboxamide] was tested. Which EC50 did it give?
A: 250 to 1000 nM

Q: `CCOc1cc(C)nc(NC23CC(NC(=O)COc4ccc(Cl)c(F)c4)(C2)C3)n1` [Compound 383, 2-(4-chloro-3-fluorophenoxy)-N-{3-[(4-ethoxy-6-methylpyrimidin-2-yl)amino]bicyclo[1.1.1]pentan-1-yl}acetamide] was tested. Which EC50 did it give?
A: > 2000 nM

Q: `CCc1nc(C(=O)NC23CC(NC(=O)COc4ccc(Cl)c(F)c4)(C2)C3)cs1` [Compound 554, N-{3-[2-(4-chloro-3-fluorophenoxy)acetamido]bicyclo[1.1.1]pentan-1-yl}-2-ethyl-1,3-thiazole-4-carboxamide] was tested. Which EC50 did it give?
A: < 50 nM

Q: For `O=C(COc1ccc(Cl)c(F)c1)NC12CC(NC(=O)c3c[nH]c4ccccc34)(C1)C2` [Compound 313, N-{3-[2-(4-chloro-3-fluorophenoxy)acetamido]bicyclo[1.1.1]pentan-1-yl}-1H-indole-3-carboxamide], which EC50 is on record?
A: 50 to 250 nM

Q: How did the EC50 turn out when `CC(=O)N1CCC(c2ncc(C(=O)NC34CC(NC(=O)COc5ccc(Cl)c(Cl)c5)(C3)C4)o2)CC1` [Compound 149, 2-(1-acetylpiperidin-4-yl)-N-{3-[2-(3,4-dichlorophenoxy)acetamido]bicyclo[1.1.1]pentan-1-yl}-1,3-oxazole-5-carboxamide] was run?
A: 1000 to 2000 nM

Q: With `NCc1ccnc(C(=O)NC23CC(NC(=O)COc4ccc(Cl)c(Cl)c4)(C2)C3)c1` [Compound 615, 4-(aminomethyl)-N-{3-[2-(3,4-dichlorophenoxy)acetamido]bicyclo[1.1.1]pentan-1-yl}pyridine-2-carboxamide] as the molecule, how does the EC50 read?
A: 50 to 250 nM

Q: `Cn1nc(C(=O)NC23CC(NC(=O)COc4ccc(Cl)c(F)c4)(C2)C3)cc1-c1ccccc1` [Compound 345, N-{3-[2-(4-chloro-3-fluorophenoxy)acetamido]bicyclo[1.1.1]pentan-1-yl}-1-methyl-5-phenyl-1H-pyrazole-3-carboxamide] was tested. Which EC50 did it give?
A: 50 to 250 nM

Q: `Cc1cc(C(=O)NC23CCC(NC(=O)COc4ccc(Cl)c(Cl)c4)(C2)C3)nn1-c1ccc(Cl)cc1` [Compound 111, 1-(4-chlorophenyl)-N-{4-[2-(3,4-dichlorophenoxy)acetamido]bicyclo[2.1.1]-hexan-1-yl}5-methyl-1H-pyrazole-3-carboxamide] was tested. Which EC50 did it give?
A: > 2000 nM

Q: `Cc1cc2c(NC34CC(NC(=O)COc5ccc(OC(F)(F)F)cc5)(C3)C4)nccn2n1` [Compound 423, N-{3-[(2-methylpyrazolo[1,5-a]pyrazin-4-yl)amino]bicyclo[1.1.1]pentan-1-yl}-2-[4-(trifluoromethoxy)phenoxy]acetamide] was tested. Which EC50 did it give?
A: 250 to 1000 nM

Q: With `O=C(COc1ccc(Cl)c(Cl)c1)NC12CC(NC(=O)c3cnc(-c4ccccc4)o3)(C1)C2` [Compound 740, N-{3-[2-(3,4-dichlorophenoxy)acetamido]bicyclo[1.1.1]pentan-1-yl}-2-phenyl-1,3-oxazole-5-carboxamide] as the molecule, how does the EC50 read?
A: < 50 nM

Q: `Cc1ncoc1C(=O)NC12CC(NC(=O)COc3ccc(Cl)c(F)c3)(C1)C2` [Compound 869, N-{3-[2-(4-chloro-3-fluorophenoxy)acetamido]bicyclo[1.1.1]pentan-1-yl}-4-methyl-1,3-oxazole-5-carboxamide] was tested. Which EC50 did it give?
A: > 2000 nM

Q: Which EC50 does the source give for `COc1ccc(C(=O)NC23CC(NC(=O)COc4ccc(Cl)c(F)c4)(C2)C3)cc1F` [Compound 530, N-{3-[2-(4-chloro-3-fluorophenoxy)acetamido]bicyclo[1.1.1]pentan-1-yl}-3-fluoro-4-methoxybenzamide] here?
A: 250 to 1000 nM

Q: With `O=C(COc1ccc(Cl)c(F)c1)NC12CC(NC(=O)c3cc4ccccc4cn3)(C1)C2` [Compound 660, N-{3-[2-(4-chloro-3-fluorophenoxy)acetamido]bicyclo[1.1.1]pentan-1-yl}isoquinoline-3-carboxamide] as the molecule, how does the EC50 read?
A: 250 to 1000 nM

Q: Which EC50 does the source give for `Cc1nn(C)c(C(=O)NC23CCC(NC(=O)COc4ccc(Cl)c(F)c4)(CC2)C[C@@H]3O)c1F` [Compound 498, N-{(2S)-4-[2-(4-chloro-3-fluorophenoxy)acetamido]-2-hydroxybicyclo[2.2.2]octan-1-yl}-4-fluoro-1,3-dimethyl-1H-pyrazole-5-carboxamide] here?
A: < 50 nM

Q: `NCc1ccnc(C(=O)NC23CC(NC(=O)COc4ccc(Cl)c(F)c4)(C2)C3)c1` [Compound 193, 4-(aminomethyl)-N-{3-[2-(4-chloro-3-fluorophenoxy)acetamido]bicyclo[1.1.1]pentan-1-yl}pyridine-2-carboxamide] was tested. Which EC50 did it give?
A: 50 to 250 nM

Q: Which EC50 does the source give for `O=C(COc1ccc(Cl)c(F)c1)NC12CC(Nc3nccc(-c4ccc(Cl)cc4)n3)(C1)C2` [Compound 370, 2-(4-chloro-3-fluorophenoxy)-N-(3-{[4-(4-chlorophenyl)pyrimidin-2-yl]amino}bicyclo[1.1.1]pentan-1-yl)acetamide] here?
A: < 50 nM

Q: With `Cc1cnc(C(=O)NC23CC(NC(=O)COc4ccc(Cl)c(F)c4)(C2)C3)s1` [Compound 469, N-{3-[2-(4-chloro-3-fluorophenoxy)acetamido]bicyclo[1.1.1]pentan-1-yl}-5-methyl-1,3-thiazole-2-carboxamide] as the molecule, how does the EC50 read?
A: 250 to 1000 nM

Q: With `O=C(COc1ccc(Cl)c(F)c1)NC12CCC(NC(=O)c3cc(-n4ccnc4)ccn3)(CC1)CC2O` (stereo not shown) [Compound 934, N-{4-[2-(4-chloro-3-fluorophenoxy)acetamido]-3-hydroxybicyclo[2.2.2]octan-1-yl}-4-(1H-imidazol-1-yl)pyridine-2-carboxamide] as the molecule, how does the EC50 read?
A: 1000 to 2000 nM

Q: `CC(=O)N1CCC(c2ncc(C(=O)NC34CC(NC(=O)COc5ccc(Cl)c(F)c5)(C3)C4)o2)CC1` [Compound 148, 2-(1-acetylpiperidin-4-yl)-N-{3-[2-(4-chloro-3-fluorophenoxy)acetamido]bicyclo[1.1.1]pentan-1-yl}-1,3-oxazole-5-carboxamide] was tested. Which EC50 did it give?
A: > 2000 nM

Q: Which EC50 does the source give for `O=C(COc1ccc(Cl)c(F)c1)NC12CCC(NC(=O)c3ccccn3)(C1)C2` [Compound 356, N-{4-[2-(4-chloro-3-fluorophenoxy)acetamido]bicyclo[2.1.1]hexan-1-yl}pyridine-2-carboxamide] here?
A: > 2000 nM

Q: For `O=C(CCCc1cccc(Cl)c1)NC12CC(NC(=O)c3cnc(C(F)F)cn3)(C1)C2` [Compound 946, N-{3-[4-(3-chlorophenyl)butanamido]bicyclo[1.1.1]pentan-1-yl}-5-(difluoromethyl)pyrazine-2-carboxamide], which EC50 is on record?
A: > 2000 nM

Q: `Cc1c(C(=O)NC23CC(NC(=O)COc4ccc(Cl)c(F)c4)(C2)C3)cnn1C` [Compound 882, N-{3-[2-(4-chloro-3-fluorophenoxy)acetamido]bicyclo[1.1.1]pentan-1-yl}-1,5-dimethyl-1H-pyrazole-4-carboxamide] was tested. Which EC50 did it give?
A: > 2000 nM

Q: For `O=C(COc1ccc(Cl)c(F)c1)NC12CC(NC(=O)c3ncc(Cl)cc3F)(C1)C2` [Compound 770, 5-chloro-N-{3-[2-(4-chloro-3-fluorophenoxy)acetamido]bicyclo[1.1.1]pentan-1-yl}-3-fluoropyridine-2-carboxamide], which EC50 is on record?
A: 1000 to 2000 nM

Q: How did the EC50 turn out when `O=C(COc1ccc(Cl)c(F)c1)NC12CC(NC(=O)c3cc4cccnc4s3)(C1)C2` [Compound 798, N-{3-[2-(4-chloro-3-fluorophenoxy)acetamido]bicyclo[1.1.1]pentan-1-yl}thieno[2,3-b]pyridine-2-carboxamide] was run?
A: > 2000 nM

Q: For `O=C(COc1ccc(Cl)cc1)NC12CC(Nc3nnc(-c4ccc(Cl)cc4)s3)(C1)C2` [Compound 271, 2-(4-chlorophenoxy)-N-(3-{[5-(4-chlorophenyl)-1,3,4-thiadiazol-2-yl]amino}bicyclo[1.1.1]pentan-1-yl)acetamide], which EC50 is on record?
A: 250 to 1000 nM

Q: How did the EC50 turn out when `Cc1cc(C(=O)NC23CCC(NC(=O)COc4ccc(Cl)c(F)c4)(CC2)[C@H](O)C3)on1` (single isomer, unassigned) [Compound 357] was run?
A: 250 to 1000 nM

Q: `N#Cc1ccc(C(=O)NC23CC(NC(=O)COc4ccc(Cl)c(F)c4)(C2)C3)nc1` [Compound 173, N-{3-[2-(4-chloro-3-fluorophenoxy)acetamido]bicyclo[1.1.1]pentan-1-yl}-5-cyanopyridine-2-carboxamide] was tested. Which EC50 did it give?
A: 50 to 250 nM

Q: For `Cc1onc(C(=O)NC23CC(NC(=O)COc4ccc(Cl)c(F)c4)(C2)C3)c1C` [Compound 901, N-{3-[2-(4-chloro-3-fluorophenoxy)acetamido]bicyclo[1.1.1]pentan-1-yl}-4,5-dimethyl-1,2-oxazole-3-carboxamide], which EC50 is on record?
A: > 2000 nM

Q: `Cc1cnc(C(=O)NC23CCC(NC(=O)COc4ccc(Cl)c(Cl)c4)(CC2)[C@@H](O)C3)cn1` [Compound 735, N-{(3S)-4-[2-(3,4-dichlorophenoxy)acetamido]-3-hydroxybicyclo[2.2.2]octan-1-yl}-5-methylpyrazine-2-carboxamide] was tested. Which EC50 did it give?
A: < 50 nM
